The target in experiment [1] is T1, recombinant human FLAP protein (Homo sapiens, UniProt P20292).
T1 construct: made in house; host or cells: Sf9 insect cells (membrane fraction, 100,000 x g pellet)
T1 sequence (P20292 1-161): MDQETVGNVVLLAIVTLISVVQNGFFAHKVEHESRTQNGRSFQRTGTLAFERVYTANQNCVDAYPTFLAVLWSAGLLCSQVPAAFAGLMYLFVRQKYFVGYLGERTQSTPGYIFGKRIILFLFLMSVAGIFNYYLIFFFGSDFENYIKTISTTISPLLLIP
In words: FLAP binding assay (Scintillation Proximity Assay, displacement of [125I]L-691,831). As to conditions: read-out: Human FLAP SPA Binding (IC50 nM). The method, boiled down:
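Membranes from sf9 cells expressing recombinant human FLAP (5 μg/well) on WGA SPA beads were incubated with compound and 0.08 nM [125I]L-691,831 in Tris pH 7.5 binding buffer, shaken 2 h. Displacement read by scintillation proximity; non-specific binding set with 10 μM unlabelled L-691,831.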
(SPA uses beads or plates that emit light when radiolabelled molecules are held near them.)

Experiment [2] has as its system synthesis of LTB4 in human whole blood. In words: Human whole blood assay (calcimycin-stimulated LTB4 synthesis). It counts as cell-based. The note with it: Homo sapiens; read-out: Human Whole Blood LTB4 Assay for FLAP (IC50 nM). Put shortly: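 Heparinized human whole blood was preincubated with compound for 15 min at 37° C, then stimulated with calcimycin (20 μM final, in PBS pH 7.4) for a further 30 min at 37° C. Plasma LTB4 was quantified by antibody-based homogeneous time-resolved fluorescence.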

This passage reports IC50 results from patent US9174980B2, “Heterocyclic compounds as inhibitors of leukotriene production” (Boehringer Ingelheim International GmbH, priority 2012, dated 2015).

Some results are limits rather than exact numbers.

For orientation: IC50 means the point on the concentration scale where inhibition reaches its midpoint. In the case of `CC(C)C(C)(c1ccc(-c2cnc(N)nc2)cc1)c1c[nH]c2cc(C(=O)N3CCOCC3)ccc12` (centres unmarked) [Example 77, (3-{2-[4-(2-aminopyrimidin-5-yl)phenyl]-3-methylbutan-2-yl}-1H-indol-6-yl)(morpholin-4-yl)methanone], the IC50 in experiment [1] stood at 1.7 nM; in experiment [2], 640 nM.
The matching figures for `CC(C)C(C)(c1ccc(-c2cnc(N)nc2)cc1)c1c[nH]c2cc(C(=O)N3CC(O)C3)ccc12` (centres unmarked) [Example 78, (3-{2-[4-(2-aminopyrimidin-5-yl)phenyl]-3-methylbutan-2-yl}-1H-indol-6-yl)(3-hydroxyazetidin-1-yl)methanone]: 1.6 nM and > 5000 nM.
In the case of `CC(C)C(C)(c1ccc(-c2cnc(N)nc2)cc1)c1c[nH]c2cc(C(=O)N(C)CCO)ccc12` (centres unmarked) [Example 79, 3-{2-[4-(2-aminopyrimidin-5-yl)phenyl]-3-methylbutan-2-yl}-N-(2-hydroxyethyl)-N-methyl-1H-indole-6-carboxamide], the half-inhibitory concentration (IC50) in experiment [1] was 8.5 nM; in experiment [2], 2600 nM.
For `CC(C)C(C)(c1ccc(-c2cnc(N)nc2)cc1)c1c[nH]c2cc(C(=O)N3CCC(O)C3)ccc12` (centres unmarked) [Example 80, (3-{2-[4-(2-aminopyrimidin-5-yl)phenyl]-3-methylbutan-2-yl}-1H-indol-6-yl)(3-hydroxypyrrolidin-1-yl)methanone], the IC50 is 1.6 nM in experiment [1] and > 5000 nM in experiment [2].
As for `Nc1ncc(-c2ccc(C3(c4c[nH]c5ccccc45)CCC3)cc2)cn1` [Example 81, 5-{4-[1-(1H-indol-3-yl)cyclobutyl]phenyl}pyrimidin-2-amine], the 50% inhibitory concentration (IC50) in experiment [1] stood at 5.1 nM; in experiment [2] it was 370 nM.
As for `Nc1ncc(-c2ccc(C3(c4c[nH]c5cc(F)ccc45)CCC3)cc2)cn1` [Example 82, 5-{4-[1-(6-fluoro-1H-indol-3-yl)cyclobutyl]phenyl}pyrimidin-2-amine], the IC50 was 0.94 nM in experiment [1] and 160 nM in experiment [2].
Take `Nc1ncc(-c2ccc(C3(c4c[nH]c5ccc(F)cc45)CCC3)cc2)cn1` [Example 83, 5-{4-[1-(5-fluoro-1H-indol-3-yl)cyclobutyl]phenyl}pyrimidin-2-amine]: the IC50 in experiment [1] came to 5 nM; in experiment [2], 460 nM.
Consider `CC(C)C(C)(c1ccc(-c2cnc(N)nc2)cc1)c1c[nH]c2c(C(=O)O)cccc12` (centres unmarked) [Example 84, 3-[1-[4-(2-aminopyrimidin-5-yl)phenyl]-1,2-dimethyl-propyl]-1H-indole-7-carboxylic acid], for which the values for the IC50 in experiment [1] and in experiment [2] were 0.7 nM and 3000 nM, respectively.
In the case of `CC(C)C(C)(c1ccc(-c2cnc(N)nc2)cc1)c1c[nH]c2cc(S(C)(=O)=O)ccc12` (centres unmarked) [Example 85, 5-(4-{3-methyl-2-[6-(methylsulfonyl)-1H-indol-3-yl]butan-2-yl}phenyl)pyrimidin-2-amine], the results for the IC50 in experiment [1] and in experiment [2] were 0.97 nM and 300 nM, respectively.
As to `Cc1[nH]c2ccccc2c1C(C)(c1ccc(-c2cnc(N)nc2)cc1)C(C)C` (centres unmarked) [Example 86, 5-{4-[3-methyl-2-(2-methyl-1H-indol-3-yl)butan-2-yl]phenyl}pyrimidin-2-amine], the IC50 was determined as 1.4 nM in experiment [1] and 230 nM in experiment [2].
Consider `Nc1ncc(-c2ccc(C3(c4c[nH]c5c(F)cccc45)CCC3)cc2)cn1` [Example 87, 5-{4-[1-(7-fluoro-1H-indol-3-yl)cyclobutyl]phenyl}pyrimidin-2-amine], for which the half-inhibitory concentration (IC50) is 1.6 nM in experiment [1] and 400 nM in experiment [2].
On to `Nc1ncc(-c2ccc(C3(c4c[nH]c5ccccc45)CCCC3)cc2)cn1` [Example 88, 5-{4-[1-(1H-indol-3-yl)cyclopentyl]phenyl}pyrimidin-2-amine], for which the IC50 in experiment [1] was 1.7 nM; in experiment [2] it was 430 nM.
On to `Nc1ncc(-c2ccc(C3(c4c[nH]c5ccccc45)CCCCC3)cc2)cn1` [Example 89, 5-{4-[1-(1H-indol-3-yl)cyclohexyl]phenyl}pyrimidin-2-amine], for which the IC50 in experiment [1] is 12 nM; in experiment [2] it was 2200 nM.
Take `CS(=O)(=O)c1ccc2c(C3(c4ccc(-c5cnc(N)nc5)cc4)CCC3)c[nH]c2c1` [Example 90, 5-(4-{1-[6-(methylsulfonyl)-1H-indol-3-yl]cyclobutyl}phenyl)pyrimidin-2-amine]: the figures for the IC50 in experiment [1] and in experiment [2] were 0.75 nM and 170 nM, respectively.
The corresponding values for `CCC(C)(c1ccc(-c2cnc(N)nc2)cc1)c1c[nH]c2ccccc12` (centres unmarked) [Example 91, 5-{4-[2-(1H-indol-3-yl)butan-2-yl]phenyl}pyrimidin-2-amine] are 2.7 nM and 230 nM.
The matching figures for `Nc1ncc(-c2ccc(C3(c4nc(-c5cccnc5)no4)CCC3)cc2)cn1` [Example 92, 5-(4-{1-[3-(pyridin-3-yl)-1,2,4-oxadiazol-5-yl]cyclobutyl}phenyl)pyrimidin-2-amine]: 9.1 nM and 840 nM.
Take `Nc1ncc(-c2ccc(C3(c4nnc(-c5ccccc5)o4)CCC3)cc2)cn1` [Example 93, 5-{4-[1-(5-phenyl-1,3,4-oxadiazol-2-yl)cyclobutyl]phenyl}pyrimidin-2-amine]: the IC50 in experiment [1] is 29 nM; in experiment [2], > 5000 nM.
On to `Nc1ncc(-c2ccc(C3(c4nnc(-c5cccnc5)o4)CCC3)cc2)cn1` [Example 94, 5-(4-{1-[5-(pyridin-3-yl)-1,3,4-oxadiazol-2-yl]cyclobutyl}phenyl)pyrimidin-2-amine], for which the figures for the IC50 in experiment [1] and in experiment [2] were 120 nM and 2800 nM, respectively.
In the case of `Cn1cc(C2(c3ccc(-c4cnc(N)nc4)cc3)CCC2)c2cccnc21` [Example 95, 5-{4-[1-(1-methyl-1H-pyrrolo[2,3-b]pyridin-3-yl)cyclobutyl]phenyl}pyrimidin-2-amine], the IC50 in experiment [1] was 5 nM; in experiment [2], 960 nM.
Consider `CC(C)C(C)(c1ccc(-c2cnc(N)nc2)cc1)c1n[nH]c(-c2ccccc2)n1` (centres unmarked) [Example 96, 5-{4-[3-methyl-2-(5-phenyl-1H-1,2,4-triazol-3-yl)butan-2-yl]phenyl}pyrimidin-2-amine], for which the results for the 50% inhibitory concentration (IC50) in experiment [1] and in experiment [2] were 1.4 nM and 240 nM, respectively.
In the case of `CC(C)C(C)(c1ccc(-c2cnc(N)nc2)cc1)c1nnc(-c2ccccc2)o1` (centres unmarked) [Example 97, 5-{4-[3-methyl-2-(5-phenyl-1,3,4-oxadiazol-2-yl)butan-2-yl]phenyl}pyrimidin-2-amine], the figures for the IC50 in experiment [1] and in experiment [2] were 14 nM and 4100 nM, respectively.
Regarding `CC(C)C(C)(c1ccc(-c2cnc(N)nc2)cc1)c1c[nH]c2c(C(=O)N3CCC(O)C3)cccc12` (centres unmarked) [Example 98, (3-{2-[4-(2-aminopyrimidin-5-yl)phenyl]-3-methylbutan-2-yl}-1H-indol-7-yl)(3-hydroxypyrrolidin-1-yl)methanone], the results for the IC50 in experiment [1] and in experiment [2] were 0.6 nM and 360 nM, respectively.
The matching figures for `CC(C)C(C)(c1ccc(-c2cnc(N)nc2)cc1)c1c[nH]c2c(C(=O)N(C)CCO)cccc12` (centres unmarked) [Example 99, 3-[1-[4-(2-aminopyrimidin-5-yl)phenyl]-1,2-dimethyl-propyl]-N-(2-hydroxyethyl)-N-methyl-1H-indole-7-carboxamide]: 0.93 nM and 1600 nM.
With `COc1cncc(-c2ccc(C(c3ncc(-c4cnc(N)nc4)s3)C(C)C)cc2)c1` (centres unmarked) [Example 100], the half-inhibitory concentration (IC50) in experiment [1] was 18 nM; in experiment [2] it was 2100 nM.
The corresponding values for `CC(C)C(C)(c1ccc(-c2cnc(N)nc2)cc1)c1nc(-c2cccnc2)no1` (centres unmarked) [Example 101, 5-(4-{3-methyl-2-[3-(pyridin-3-yl)-1,2,4-oxadiazol-5-yl]butan-2-yl}phenyl)pyrimidin-2-amine] are 12 nM and 1400 nM.
On to `Nc1ncc(-c2ccc(C3(c4nnc(-c5cccnc5)[nH]4)CCC3)cc2)cn1` [Example 102, 5-(4-{1-[5-(pyridin-3-yl)-4H-1,2,4-triazol-3-yl]cyclobutyl}phenyl)pyrimidin-2-amine], for which the concentration for half-maximal inhibition (IC50) in experiment [1] is 3.7 nM; in experiment [2], 900 nM.
For the compound `Nc1ncc(-c2ccc(C3(c4c[nH]c5ncccc45)CCC3)cc2)cn1` [Example 103, 5-{4-[1-(1H-pyrrolo[2,3-b]pyridin-3-yl)cyclobutyl]phenyl}pyrimidin-2-amine], the half-inhibitory concentration (IC50) in experiment [1] amounted to 2.5 nM; in experiment [2], 160 nM.
As for `CC(C)C(C)(c1ccc(-c2cnc(N)nc2)cc1)c1nc2ccccc2[nH]1` (centres unmarked) [Example 104, 5-{4-[2-(1H-benzimidazol-2-yl)-3-methylbutan-2-yl]phenyl}pyrimidin-2-amine], the figures for the concentration for half-maximal inhibition (IC50) in experiment [1] and in experiment [2] were 8.6 nM and 1900 nM, respectively.
Take `CN(CCO)C(=O)c1ccc2[nH]cc(C3(c4ccc(-c5cnc(N)nc5)cc4)CCC3)c2c1` [Example 105, 3-{1-[4-(2-aminopyrimidin-5-yl)phenyl]cyclobutyl}-N-(2-hydroxyethyl)-N-methyl-1H-indole-5-carboxamide]: the IC50 in experiment [1] is 91 nM; in experiment [2], > 5000 nM.
The corresponding values for `Nc1ncc(-c2ccc(C3(c4c[nH]c5cc(C(=O)N6CCC(O)C6)ccc45)CCC3)cc2)cn1` (centres unmarked) [Example 106, (3-{1-[4-(2-aminopyrimidin-5-yl)phenyl]cyclobutyl}-1H-indol-6-yl)(3-hydroxypyrrolidin-1-yl)methanone] are 0.91 nM and 4100 nM.
The corresponding values for `Nc1ncc(-c2ccc(C3(c4c[nH]c5c(C(=O)N6CCC(O)C6)cccc45)CCC3)cc2)cn1` (centres unmarked) [Example 107, (3-{1-[4-(2-aminopyrimidin-5-yl)phenyl]cyclobutyl}-1H-indol-7-yl)(3-hydroxypyrrolidin-1-yl)methanone] are 1.2 nM and 180 nM.
